Test results taken from PubChem BioAssay (NCI).
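All cell lines were grown in 96-well plates and treated with compound for 48 hours. GI50 is the concentration that inhibits growth by half. TGI: concentration producing complete growth inhibition.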

What was measured:
Assay in all cases: NCI tumour cell line growth inhibition, 48 h
A498 renal = test system: A498 renal
BT-549 breast = test system: BT-549 breast
COLO 205 colon = test system: COLO 205 colon
HCT-15 colon = test system: HCT-15 colon
K-562 leukemia = test system: K-562 leukemia
KM12 colon = test system: KM12 colon
NCI/ADR-RES ovarian = test system: NCI/ADR-RES ovarian
OVCAR-5 ovarian = test system: OVCAR-5 ovarian
SK-MEL-2 melanoma = test system: SK-MEL-2 melanoma
SNB-19 CNS = test system: SNB-19 CNS

`Cc1c(NC(=O)Nc2c(Cl)cccc2Cl)c(=O)n(-c2ccccc2)n1C` was tested, and the TGI (A498 renal) was > 100 µM, the TGI (BT-549 breast) was > 100 µM and the TGI (COLO 205 colon) was > 100 µM. For the same compound, the TGI (HCT-15 colon) was > 100 µM, the TGI (K-562 leukemia) was > 100 µM and the TGI (KM12 colon) was > 100 µM. For the same compound, the TGI (NCI/ADR-RES ovarian) was > 100 µM, the TGI (OVCAR-5 ovarian) was > 100 µM and the TGI (SK-MEL-2 melanoma) was > 100 µM. The TGI (SNB-19 CNS) was > 100 µM.
`COc1cc(C2c3cc4c(cc3[C@@H](Nc3ccc([N+](=O)[O-])cc3)C3COC(=O)[C@H]23)OCO4)cc(OC)c1O` (stereo partly drawn) showed a GI50 (A498 renal) of 0.536 µM, a TGI (A498 renal) of 4.8 µM and a TGI (BT-549 breast) of 6.39 µM. The TGI (COLO 205 colon) was 10.1 µM, the TGI (HCT-15 colon) was 19.6 µM and the TGI (K-562 leukemia) was 39.4 µM. For the same compound, the TGI (KM12 colon) was 6.42 µM, the TGI (NCI/ADR-RES ovarian) was > 93.6 µM and the GI50 (OVCAR-5 ovarian) was 0.722 µM. For the same compound, the TGI (OVCAR-5 ovarian) was 13.6 µM, the TGI (SK-MEL-2 melanoma) was 10.7 µM and the GI50 (SNB-19 CNS) was 0.481 µM. It also gave a TGI (SNB-19 CNS) of 25.8 µM.
